In ChEMBL document CHEMBL1139057, “Rotenoids and flavonoids with anti-invasion of HT1080, anti-proliferation of U937, and differentiation-inducing activity in HL-60 from Erycibe expansa” (Bioorg Med Chem, 2007):
The source made the active and inactive calls. No cut-off for these calls is given here.

How the values were obtained:
[1] = tested on: U-937; assay: Antiproliferative activity against human U937 cells after 72 hrs by WST-8 assay; type: functional, cell-based; conditions: U-937, 72 h
[2] = tested on: U-937; assay: Antiproliferative activity against human U937 cells after 48 hrs by WST-8 assay; type: functional, cell-based; conditions: U-937, 48 h
[3] = tested on: U-937; assay: Antiproliferative activity against human U937 cells after 24 hrs by WST-8 assay; type: functional, cell-based; conditions: U-937, 24 h
[4] = tested on: HT-1080; assay: Antiproliferative activity against human HT1080 cells at 3 uM after 72 hrs by calcein-AM assay; type: functional; conditions: HT-1080, 72 h
[5] = tested on: HT-1080; assay: Antiproliferative activity against human HT1080 cells at 10 uM after 48 hrs by calcein-AM assay; type: functional; conditions: HT-1080, 48 h
[6] = tested on: HT-1080; assay: Antiproliferative activity against human HT1080 cells at 30 uM after 72 hrs by MTT assay; type: functional; conditions: HT-1080, 72 h
[7] = tested on: HT-1080; assay: Antiproliferative activity against human HT1080 cells at 1 uM after 72 hrs by MTT assay; type: functional; conditions: HT-1080, 72 h
[8] = tested on: HT-1080; assay: Antiproliferative activity against human HT1080 cells at 10 uM after 72 hrs by calcein-AM assay; type: functional; conditions: HT-1080, 72 h
[9] = tested on: HT-1080; assay: Antiproliferative activity against human HT1080 cells at 1 uM after 24 hrs by MTT assay; type: functional; conditions: HT-1080, 24 h
[10] = tested on: HT-1080; assay: Antiproliferative activity against human HT1080 cells at 10 uM after 48 hrs by MTT assay; type: functional; conditions: HT-1080, 48 h
[11] = tested on: HT-1080; assay: Inhibition of proMMP9 production in human HT1080 cells by gelatin zymography analysis; type: functional, cell-based
[12] = tested on: HT-1080; assay: Antiproliferative activity against human HT1080 cells at 30 uM after 48 hrs by calcein-AM assay; type: functional; conditions: HT-1080, 48 h
[13] = tested on: HT-1080; assay: Inhibition of invasion of human HT1080 cells at 3 uM after 24 hrs; type: functional; conditions: HT-1080, 24 h
[14] = tested on: HT-1080; assay: Antiproliferative activity against human HT1080 cells at 3 uM after 48 hrs by MTT assay; type: functional; conditions: HT-1080, 48 h
[15] = tested on: HT-1080; assay: Antiproliferative activity against human HT1080 cells at 10 uM after 24 hrs by MTT assay; type: functional; conditions: HT-1080, 24 h
[16] = tested on: HT-1080; assay: Inhibition of invasion of human HT1080 cells at 10 uM after 24 hrs; type: functional; conditions: HT-1080, 24 h
[17] = tested on: HT-1080; assay: Antiproliferative activity against human HT1080 cells at 3 uM after 48 hrs by calcein-AM assay; type: functional; conditions: HT-1080, 48 h
[18] = tested on: HT-1080; assay: Inhibition of proMMP2 production in human HT1080 cells by gelatin zymography analysis; type: functional, cell-based
[19] = tested on: HT-1080; assay: Inhibition of invasion of human HT1080 cells at 1 uM after 24 hrs; type: functional; conditions: HT-1080, 24 h
[20] = tested on: HT-1080; assay: Antiproliferative activity against human HT1080 cells at 3 uM after 72 hrs by MTT assay; type: functional; conditions: HT-1080, 72 h
[21] = tested on: HT-1080; assay: Antiproliferative activity against human HT1080 cells at 3 uM after 24 hrs by calcein-AM assay; type: functional; conditions: HT-1080, 24 h
[22] = tested on: HT-1080; assay: Antiproliferative activity against human HT1080 cells at 1 uM after 72 hrs by calcein-AM assay; type: functional; conditions: HT-1080, 72 h
[23] = tested on: HT-1080; assay: Antiproliferative activity against human HT1080 cells at 1 uM after 48 hrs by calcein-AM assay; type: functional; conditions: HT-1080, 48 h
[24] = tested on: HT-1080; assay: Antiproliferative activity against human HT1080 cells at 1 uM after 24 hrs by calcein-AM assay; type: functional; conditions: HT-1080, 24 h
[25] = tested on: HT-1080; assay: Inhibition of invasion of human HT1080 cells at 30 uM after 24 hrs; type: functional; conditions: HT-1080, 24 h
[26] = tested on: HT-1080; assay: Antiproliferative activity against human HT1080 cells at 10 uM after 24 hrs by calcein-AM assay; type: functional; conditions: HT-1080, 24 h
[27] = tested on: HT-1080; assay: Antiproliferative activity against human HT1080 cells at 30 uM after 72 hrs by calcein-AM assay; type: functional; conditions: HT-1080, 72 h
[28] = tested on: HT-1080; assay: Antiproliferative activity against human HT1080 cells at 30 uM after 24 hrs by calcein-AM assay; type: functional; conditions: HT-1080, 24 h
[29] = tested on: HT-1080; assay: Antiproliferative activity against human HT1080 cells at 1 uM after 48 hrs by MTT assay; type: functional; conditions: HT-1080, 48 h
[30] = tested on: HT-1080; assay: Antiproliferative activity against human HT1080 cells at 10 uM after 72 hrs by MTT assay; type: functional; conditions: HT-1080, 72 h
[31] = tested on: HT-1080; assay: Antiproliferative activity against human HT1080 cells at 30 uM after 48 hrs by MTT assay; type: functional; conditions: HT-1080, 48 h
[32] = tested on: HT-1080; assay: Antiproliferative activity against human HT1080 cells at 3 uM after 24 hrs by MTT assay; type: functional; conditions: HT-1080, 24 h
[33] = tested on: HT-1080; assay: Antiproliferative activity against human HT1080 cells at 30 uM after 24 hrs by MTT assay; type: functional; conditions: HT-1080, 24 h

COc1ccc2c(c1)OC[C@H]1c3cc4c(cc3O[C@@H]21)OCO4 [PTEROCARPIN]
IC50 [1]: > 100 µM
IC50 [2]: > 100 µM
IC50 [3]: > 100 µM

COc1ccc(-c2coc3cc(O)ccc3c2=O)cc1O [CALYCOSIN]
IC50 [1]: 43 µM
IC50 [2]: 48 µM
IC50 [3]: 49 µM

O=c1c(-c2ccc(O)c(O)c2)coc2cc(O)cc(O)c12 [OROBOL]
IC50 [1]: > 100 µM
IC50 [2]: > 100 µM
IC50 [3]: 73 µM

C=C(C)[C@H]1Cc2c(ccc3c2O[C@@H]2COc4cc(OC)c(OC)cc4[C@@H]2C3=O)O1 [ROTENONE]
inhibition at 3 µM [4]: 95.3%
inhibition at 10 µM [5]: 51%
inhibition at 30 µM [6]: 97.8%
inhibition at 1 µM [7]: 98.6%
inhibition at 10 µM [8]: 91.4%
inhibition at 1 µM [9]: 9.4%
inhibition at 10 µM [10]: 97.3%
Activity [11]: Active
inhibition at 30 µM [12]: 40.4%
inhibition at 3 µM [13]: 19.6%
inhibition at 3 µM [14]: 97.5%
inhibition at 10 µM [15]: 9.5%
inhibition at 10 µM [16]: 53.7%
IC50 [1]: 0.07 µM
IC50 [2]: 0.2 µM
inhibition at 3 µM [17]: 44.2%
Activity [18]: Active
inhibition at 1 µM [19]: 0.6%
inhibition at 3 µM [20]: 98.5%
inhibition at 3 µM [21]: 17.1%
inhibition at 1 µM [22]: 97.4%
inhibition at 1 µM [23]: 35.2%
inhibition at 1 µM [24]: 16.2%
inhibition at 30 µM [25]: 51.6%
inhibition at 10 µM [26]: 23%
inhibition at 30 µM [27]: 93.4%
inhibition at 30 µM [28]: 26.8%
inhibition at 1 µM [29]: 95.9%
inhibition at 10 µM [30]: 98.4%
inhibition at 30 µM [31]: 96.9%
inhibition at 3 µM [32]: 9.9%
IC50 [3]: 13 µM
inhibition at 30 µM [33]: 0.7%

CC(C)=CCc1c(O)cc2occ(-c3ccc(O)cc3)c(=O)c2c1O [WIGHTEONE]
IC50 [1]: 32 µM
IC50 [2]: 35 µM
IC50 [3]: 28 µM

O=C1C[C@@H](c2ccc(O)c(O)c2)Oc2cc(O)cc(O)c21 [ERIODICTYOL]
IC50 [1]: > 100 µM
IC50 [2]: > 100 µM
IC50 [3]: > 100 µM

CC(C)(O)[C@@H](O)Cc1c(O)cc(O)c2c(=O)c(-c3ccc(O)cc3)coc12 [ERYCIBENIN B]
IC50 [1]: > 100 µM
IC50 [2]: > 100 µM
IC50 [3]: > 100 µM

COc1ccc2c(c1)OC[C@@]1(OC)c3cc4c(cc3O[C@@H]21)OCO4 [ERYCIBENIN C]
IC50 [1]: > 100 µM
IC50 [2]: > 100 µM
IC50 [3]: > 100 µM

COc1cc(O)c(-c2coc3cc(O)ccc3c2=O)cc1OC
IC50 [1]: 48 µM
IC50 [2]: 72 µM
IC50 [3]: > 100 µM

COc1ccc2c(=O)c(-c3ccc(OC)c(OC)c3)coc2c1
IC50 [1]: > 100 µM
IC50 [2]: > 100 µM
IC50 [3]: > 100 µM

COc1cc2c(cc1OC)[C@@H]1COc3cc(O)ccc3[C@@H]1O2 [SECUNDIFLOROL I]
IC50 [1]: > 100 µM
IC50 [2]: > 100 µM
IC50 [3]: > 100 µM

CC(C)(O)[C@@H](O)Cc1c(O)cc2occ(-c3ccc(O)cc3)c(=O)c2c1O [ERYCIBENIN A]
IC50 [1]: 21 µM
IC50 [2]: 25 µM
IC50 [3]: 46 µM

CC1(C)C=Cc2c(cc3occ(-c4ccc(O)cc4)c(=O)c3c2O)O1 [ALPINUMISOFLAVONE]
IC50 [1]: 28 µM
IC50 [2]: 32 µM
IC50 [3]: 35 µM

COc1ccc2c(c1)O[C@@H]1[C@H]2COC2=CC(=O)CC[C@@]21O
IC50 [1]: > 100 µM
IC50 [2]: > 100 µM
IC50 [3]: > 100 µM

CC1(C)C=Cc2c(cc(O)c3c(=O)c(-c4ccc(O)cc4)coc23)O1 [DERRONE]
IC50 [1]: 13 µM
IC50 [2]: 20 µM
IC50 [3]: 26 µM
